Results reported in the RepoRT retention time repository.

Assay: HILIC, Waters ACQUITY UPLC BEH Amide, 100 × 2.1 mm, 1.7 µm; A: water + 0.125% formic acid + 10 mM ammonium formate; B: 5% water + 95% acetonitrile + 0.125% formic acid + 10 mM ammonium formate; gradient (min/%B) 0/100 2/100 7.7/70 9.5/40 10.25/30 12.75/100 17/100
Settings: stereoisomer not certain

Structure (SMILES)	LC retention time
Nc1nc2c(ncn2CCC(CO)CO)c(=O)[nH]1 [Penciclovir]	6.71 min
NCCc1c[nH]c2ccc(O)cc12 [Serotonin]	1.44 min
Nc1ccn(C2CCC(CO)O2)c(=O)n1 (configuration not stated) [2,3-Dideoxycytidine]	4.54 min
Cn1c(=O)c2c(ncn2C)n(C)c1=O [Caffeine]	1.21 min
CN1CCCCC1CCN1c2ccccc2Sc2ccc(S(C)=O)cc21 (configuration not stated) [Mesoridazine]	4.24 min
Nc1ncnc2c1ncn2C1OC(CO)C(O)C1O (configuration not stated) [Adenosine]	4.77 min
O=c1[nH]c(=O)c2ncn(C3OC(CO)C(O)C3O)c2[nH]1 (configuration not stated) [Xanthosine]	7.3 min
CCOC(=O)c1ccc(OC(=O)CCCCCN=C(N)N)cc1 [Gabexate]	3.45 min
CN1CCC23CCCCC2C1Cc1ccc(O)cc13 (configuration not stated) [Dextrorphan]	3.87 min
CC(O)CC(=O)OC(CC(=O)[O-])C[N+](C)(C)C (configuration not stated) [3-Hydroxybutyrylcarnitine]	7.62 min
Cc1ncc([N+](=O)[O-])n1CC(C)O (configuration not stated) [Secnidazole]	1.12 min
CC(=O)NCCCC(=O)O [4-Acetamidobutyric acid]	2.26 min
CC(=O)NC(CS)C(=O)O (configuration not stated) [N-Acetylcysteine]	5.28 min
COc1ccc(C=O)cc1OC [3,4-Dimethoxybenzaldehyde]	1.08 min
COc1ccc(-c2oc3c(CC=C(C)C)c(OC4OC(CO)C(O)C(O)C4O)cc(O)c3c(=O)c2OC2OC(C)C(O)C(O)C2O)cc1 (configuration not stated) [Icarin]	4.74 min
CCOC(=O)C1C(OC(=O)c2ccccc2)CC2CCC1N2C (configuration not stated) [Cocaethylene]	2.12 min
Nc1ccccc1S(=O)(=O)O [Orthanilic acid]	2.52 min
CC1OC(OCC2OC(Oc3c(-c4ccc(O)c(O)c4)oc4cc(O)cc(O)c4c3=O)C(O)C(O)C2O)C(O)C(O)C1O (configuration not stated) [Rutin]	6.6 min
CN1C(=O)CN=C(c2ccccc2F)c2cc([N+](=O)[O-])ccc21 [Flunitrazepam]	1.05 min
NC(Cc1ccc(O)c(Cl)c1)C(=O)O (configuration not stated) [3-Chlorotyrosine]	7.13 min
O=C1CCCC(=O)C1 [1,3 Cyclohexanedione]	1.47 min
O=c1n(CCCN2CCN(c3cccc(Cl)c3)CC2)nc2ccccn12 [Trazodone]	2.38 min
Cc1ncc(CO)c(C(=O)O)c1O [4-Pyridoxic acid]	2.66 min

Structure (SMILES)	LC retention time
NC(N)=NCC(=O)O [Guanidinoacetic acid]	8.16 min
O=C1c2cccc3c2C(CCC3)CN1C1CN2CCC1CC2 (configuration not stated) [Palonosetron]	4.05 min
CC(=O)OC12COC1CC(O)C1(C)C(=O)C(O)C3=C(C)C(OC(=O)C(O)C(NC(=O)OC(C)(C)C)c4ccccc4)CC(O)(C(OC(=O)c4ccccc4)C21)C3(C)C (configuration not stated) [Docetaxel]	1.34 min
C=COC(N)=O [Vinyl Carbamate]	1.34 min
CNC1CCC(c2ccc(Cl)c(Cl)c2)c2ccccc21 (configuration not stated) [Sertraline]	2.74 min
CSCCC(=O)C(=O)O [alpha-Keto-gamma-(methylthio)butyric acid]	0.92 min
NC(CO)C(=O)NC(CCC(=O)O)C(=O)O (configuration not stated) [Ser-Glu]	9.65 min
COc1ccc2c3c1OC1C(=O)CCC4(O)C(C2)N(C)CCC314 (configuration not stated) [Oxycodone]	4.58 min
COc1ccc2[nH]cc(CC(=O)O)c2c1 [5-Methoxy-3-indoleacetic acid]	1.32 min
Cc1sc(N)c(C(=O)c2cccc(C(F)(F)F)c2)c1C	0.94 min
Nc1cc(CC(N)C(=O)O)ccc1O (configuration not stated) [3-Aminotyrosine]	8.06 min
O=C1CCCCC1=O [1,2-Cyclohexanedione]	5.77 min
CCC(C)C(=O)OC1CC(O)C=C2C=CC(C)C(CCC(O)CC(O)CC(=O)O)C21 (configuration not stated) [Pravastatin]	1.8 min
NC(=O)Cc1ccccc1 [2-Phenylacetamide]	1.26 min
CCN(CC)C(=O)C1(c2ccccc2)CC1CN (configuration not stated) [Milnacipran]	3.23 min
COC1C=COC2(C)Oc3c(C)c(O)c4c(O)c(c(C=NN5CCN(C6CCCC6)CC5)c(O)c4c3C2=O)NC(=O)C(C)=CC=CC(C)C(O)C(C)C(O)C(C)C(OC(C)=O)C1C (configuration not stated) [Rifapentine]	1.81 min
[NH3+]CC(=O)N1CCCC1C(=O)[O-] (configuration not stated) [Gly-Pro]	8.62 min
NC(CS(=O)(=O)O)C(=O)O (configuration not stated) [Cysteic acid]	8.92 min
CN(C)CCOC(C)(c1ccccc1)c1ccccn1 (configuration not stated) [Doxylamine]	2.45 min
O=c1cc[nH]c(=O)[nH]1 [Uracil]	2.4 min
NC(Cc1ccc(O)cc1)C(=O)NC(Cc1ccc(O)cc1)C(=O)O (configuration not stated) [Tyr-Tyr]	7.38 min
OCc1cccnc1 [3-Pyridinemthanol]	1.41 min
O=C(c1ccccc1)c1c(O)cc(O)cc1O [Phlorobenzophenone]	1.34 min

Structure (SMILES)	LC retention time
Nc1ncnc2c1ncn2C1OC2COP(=O)(O)OC2C1O (configuration not stated) [Adenosine 3',5'-cyclic monophosphate]	7.62 min
Cc1cnc(=O)[nH]c1N [5-Methylcytosine]	6.62 min
CCCCCCCCC=CCCCCCCCCCCCC(N)=O [Erucamide]	1.06 min
Nc1[nH]c(=O)ncc1CO [5-Hydroxymethylcytosine]	6.9 min
O=C(O)CCCCCCCCCCCCCCCCC(=O)O [Octadecanedioic acid]	1.24 min
CNC(=O)Oc1ccc2c(c1)C1(C)CCN(C)C1N2C (configuration not stated) [Physostigmine]	3.17 min
NC(CCSCC(N)C(=O)O)C(=O)O (configuration not stated) [Cystathionine]	9.91 min
CCC(C)C(=O)OC1CCC=C2C=CC(C)C(CCC3CC(O)CC(=O)O3)C21 (configuration not stated) [Mevastatin]	0.99 min
CN(C)CCC=C1c2ccccc2COc2ccc(CC(=O)O)cc21 [Olopatadine]	4.41 min
Cc1cn(C2C=CC(CO)O2)c(=O)[nH]c1=O (configuration not stated) [Stavudine]	1.62 min
CCC(C)C(NC(=O)C(C)N)C(=O)O (configuration not stated) [Ala-Ile]	7.83 min
O=C(O)CCNC(=O)c1ccc(N=Nc2ccc(O)c(C(=O)O)c2)cc1 [Balsalazide]	4.85 min
O=C(O)COCCN1CCN(C(c2ccccc2)c2ccc(Cl)cc2)CC1 (configuration not stated) [Levocetirizine]	2.9 min
c1ccc(Cn2ccnc2)cc1 [1-Benzylimidazole]	1.63 min
c1cncc(C2CCCN2)c1 (configuration not stated) [Nornicotine]	5.98 min
Cc1cc2nc3c(=O)[nH]c(=O)nc-3n(CC(O)C(O)C(O)COP(=O)(O)OP(=O)(O)OCC3OC(n4cnc5c(N)ncnc54)C(O)C3O)c2cc1C (configuration not stated)	9.52 min
CCN(CC)CCN1C(=O)CN=C(c2ccccc2F)c2cc(Cl)ccc21 [Flurazepam]	2.41 min
CC(C)c1ccc2c(c1)c(SC(C)(C)C)c(CC(C)(C)C(=O)O)n2Cc1ccc(Cl)cc1 [MK-886]	0.96 min
O=c1cc[nH]c2ccccc12 [4-Hydroxyquinoline]	1.69 min
CC(C)C(NC(=O)C(N)CCCCN)C(=O)O (configuration not stated) [Lys-Val]	9.38 min
NC(N)=NCCC(=O)O [3-Guanidinopropionic acid]	8.15 min
NC(Cc1cccc(O)c1)C(=O)O (configuration not stated) [3-Hydroxyphenylalanine]	7.44 min
Nc1ncnc2c1ncn2C1CC(O)C(COP(=O)(O)O)O1 (configuration not stated) [2'-Deoxyadenosine-5'-monophosphate]	8.63 min

Structure (SMILES)	LC retention time
C[n+]1cccc(C(N)=O)c1 [1-Methylnicotinamide]	6.26 min
CNC(=C[N+](=O)[O-])NCCSCc1ccc(CN(C)C)o1 [Ranitidine]	5.18 min
O=C(O)Cc1ccccc1Nc1c(Cl)cccc1Cl [Diclofenac]	1.08 min
CC1=NS(=O)(=O)c2cc(Cl)ccc2N1 [Diazoxide]	1.09 min
O=C(O)CCCCCO [6-Hydroxycaproic acid]	1.34 min
O=c1c(-c2ccccc2)c1-c1ccccc1 [Diphenylcyclopropenone]	1.01 min
NCCCCC(N)C(=O)NCC(=O)O (configuration not stated) [Lys-Gly]	9.84 min
CC12CCC3C(CC=C4CC(O)CCC43C)C1CCC2=O (configuration not stated) [Dehydroepiandrosterone]	1.03 min
OCC1OC(OC2(CO)OC(CO)C(O)C2O)C(O)C(O)C1O (configuration not stated) [Sucrose]	8.05 min
NC(CO)C(=O)O (configuration not stated) [Serine]	8.73 min
OCC1OC(n2cnc3c(NC4CCCC4O)ncnc32)C(O)C1O (configuration not stated) [N-2-Hydroxycyclopentyladenosine]	3.48 min
CC(C=CC1=C(C)CCCC1(C)C)=CC=CC(C)=CC(=O)O [Retinoic acid]	1.11 min
CC(C)C(N)C(=O)O (configuration not stated) [Valine]	7.24 min
C#CC1(O)CCC2C3CCC4=CC(=O)CCC4C3CCC21CC (configuration not stated) [Levonorgestrel]	0.99 min
Cc1ncc([N+](=O)[O-])n1CCO [Metronidazole]	1.17 min
CC(C)CC(N(C)C)C1(c2ccc(Cl)cc2)CCC1 (configuration not stated) [Sibutramine]	1.86 min
NC(=O)c1cccnc1 [Nicotinamide]	1.7 min
CN(CCOc1ccc(CC2SC(=O)NC2=O)cc1)c1ccccn1 (configuration not stated) [Rosigltazone]	1.24 min
CC(=O)NCCCCC(N)C(=O)O (configuration not stated) [N-epsilon-Acetyllysine]	8.03 min
Cc1cn(C2OC(CO)C(O)C2O)c(=O)nc1N (configuration not stated) [5-Methylcytidine]	6.39 min
CC12CCC3C(CCC4=CC(=O)CCC43C)C1CCC2=O (configuration not stated) [Androstenedione]	1.09 min
CCC(C)C(NC(=O)CN)C(=O)O (configuration not stated) [Gly-Ile]	7.67 min
COC1C(O)C(CO)OC1n1ccc(=O)[nH]c1=O (configuration not stated) [2'-O-Methyluridine]	2.24 min
